Active and inactive are the calls of the source. No cut-off for these calls is given here.
Tests used:
[1] = tested on: HeLa; test: Induction of cell cycle arrest in human HeLa cells assessed as accumulation of hypodiploid cells in sub-G1 phase at 0.24 to 1 uM measured after 24 hrs in the absence of light by PI staining based flow cytometry analysis; assay type: functional; conditions: dose 0.24-1 µM
[2] = Dark toxicity against human NHDF cells assessed as reduction in cell viability incubated for 24 hrs by MTT assay; assay type: cell-based
[3] = Phototoxicity against human NHDF cells assessed as reduction in cell viability preincubated for 24 hrs followed by 7 mins of LED light irradiation by MTT assay; assay type: toxicity, cell-based
[4] = Phototoxicity ratio of IC50 for cytotoxicity against human NHDF cells assessed as reduction in cell viability in dark to IC50 for phototoxicity against human NHDF cells upon LED light irradiation; assay type: toxicity, cell-based; conditions: read-out: Ratio IC50
[5] = Dark toxicity against human Caco-2 cells assessed as reduction in cell viability incubated for 24 hrs by MTT assay; assay type: cell-based
[6] = Phototoxicity against human Caco-2 cells assessed as reduction in cell viability preincubated for 24 hrs followed by 7 mins of LED light irradiation by MTT assay; assay type: toxicity, cell-based; conditions: Caco-2, light or radiation study
[7] = Phototoxicity ratio of IC50 for cytotoxicity against human Caco-2 cells assessed as reduction in cell viability in dark to IC50 for phototoxicity against human Caco-2 cells upon LED light irradiation; assay type: toxicity, cell-based
[8] = Selectivity ratio of IC50 for phototoxicity against human NHDF cells upon LED light irradiation to IC50 for phototoxicity against human Caco-2 cells upon LED light irradiation; assay type: toxicity, cell-based; conditions: NHDF cells versus Caco-2 cells, read-out: Ratio IC50
[9] = Dark toxicity against human HeLa cells assessed as reduction in cell viability incubated for 24 hrs by MTT assay; assay type: cell-based
[10] = Phototoxicity against human HeLa cells assessed as reduction in cell viability preincubated for 24 hrs followed by 7 mins of LED light irradiation by MTT assay; assay type: toxicity, cell-based; conditions: light or radiation study
[11] = Phototoxicity ratio of IC50 for cytotoxicity against human HeLa cells assessed as reduction in cell viability in dark to IC50 for phototoxicity against human HeLa cells upon LED light irradiation; assay type: toxicity, cell-based
[12] = Selectivity ratio of IC50 for phototoxicity against human NHDF cells upon LED light irradiation to IC50 for phototoxicity against human HeLa cells upon LED light irradiation; assay type: toxicity, cell-based; conditions: NHDF cells versus HeLa cells, read-out: Ratio IC50
[13] = Dark toxicity against human MCF7 cells assessed as reduction in cell viability incubated for 24 hrs by MTT assay; assay type: cell-based
[14] = Phototoxicity against human MCF7 cells assessed as reduction in cell viability preincubated for 24 hrs followed by 7 mins of LED light irradiation by MTT assay; assay type: toxicity, cell-based; conditions: MCF7, light or radiation study
[15] = Phototoxicity ratio of IC50 for cytotoxicity against human MCF7 cells assessed as reduction in cell viability in dark to IC50 for phototoxicity against human MCF7 cells upon LED light irradiation; assay type: toxicity, cell-based
[16] = Selectivity ratio of IC50 for phototoxicity against human NHDF cells upon LED light irradiation to IC50 for phototoxicity against human MCF7 cells upon LED light irradiation; assay type: toxicity, cell-based; conditions: NHDF cells versus MCF7 cells, read-out: Ratio IC50
[17] = Dark toxicity against human PC-3 cells assessed as reduction in cell viability incubated for 24 hrs by MTT assay; assay type: cell-based
[18] = Phototoxicity against human PC-3 cells assessed as reduction in cell viability preincubated for 24 hrs followed by 7 mins of LED light irradiation by MTT assay; assay type: toxicity, cell-based; conditions: PC-3, light or radiation study
[19] = Phototoxicity ratio of IC50 for cytotoxicity against human PC-3 cells assessed as reduction in cell viability in dark to IC50 for phototoxicity against human PC-3 cells upon LED light irradiation; assay type: toxicity, cell-based
[20] = Selectivity ratio of IC50 for phototoxicity against human NHDF cells upon LED light irradiation to IC50 for phototoxicity against human PC-3 cells upon LED light irradiation; assay type: toxicity, cell-based; conditions: NHDF cells versus PC-3 cells, read-out: Ratio IC50
[21] = biological target: Albumin (Homo sapiens, UniProt P02768); test: Binding affinity to human serum albumin assessed as binding constant by fluorescence based assay
Albumin, sequence (P02768 whole entry): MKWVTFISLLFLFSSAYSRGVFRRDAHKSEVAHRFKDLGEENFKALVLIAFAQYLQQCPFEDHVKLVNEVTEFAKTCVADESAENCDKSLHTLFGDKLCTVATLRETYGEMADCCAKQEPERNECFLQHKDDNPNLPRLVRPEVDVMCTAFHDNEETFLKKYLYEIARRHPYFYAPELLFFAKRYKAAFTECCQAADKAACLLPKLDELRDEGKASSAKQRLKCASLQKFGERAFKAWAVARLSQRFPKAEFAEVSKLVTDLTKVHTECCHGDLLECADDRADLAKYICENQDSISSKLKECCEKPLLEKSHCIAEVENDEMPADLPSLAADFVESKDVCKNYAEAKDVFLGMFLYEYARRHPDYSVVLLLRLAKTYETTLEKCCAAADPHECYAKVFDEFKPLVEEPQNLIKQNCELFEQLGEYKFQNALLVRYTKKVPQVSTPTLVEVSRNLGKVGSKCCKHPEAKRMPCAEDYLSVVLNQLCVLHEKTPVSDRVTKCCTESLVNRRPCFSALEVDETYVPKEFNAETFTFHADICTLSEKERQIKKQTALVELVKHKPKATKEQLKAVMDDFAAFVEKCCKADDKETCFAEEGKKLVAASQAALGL

[22] = tested on: HeLa; test: Induction of cell cycle arrest in human HeLa cells assessed as accumulation of hypodiploid cells in sub-G1 phase at 0.25 to 1 uM measured after 24 hrs in the absence of light by PI staining based flow cytometry analysis; assay type: functional; conditions: dose 0.25-1 µM
[23] = tested on: HeLa; test: Induction of morphological change in human HeLa cells assessed as rounded cell morphology at 0.25 uM preincubated for 24 hrs followed by 7 mins of LED light irradiation and measured upto 48 hrs by microscopic analysis; assay type: functional, cell-based; conditions: time min <=4327
[24] = tested on: HeLa; test: Induction of morphological change in human HeLa cells assessed as cell shrinkage at 0.25 uM preincubated for 24 hrs followed by 7 mins of LED light irradiation and measured upto 48 hrs by microscopic analysis; assay type: functional, cell-based; conditions: time min <=4327
[25] = tested on: HeLa; test: Induction of morphological change in human HeLa cells assessed as plasma membrane rupture at 1 uM preincubated for 24 hrs followed by 7 mins of LED light irradiation and measured upto 48 hrs by microscopic analysis; assay type: functional; conditions: time min <=4327
[26] = tested on: HeLa; test: Induction of morphological change in human HeLa cells assessed as intracellular space dilation at 1 uM preincubated for 24 hrs followed by 7 mins of LED light irradiation and measured upto 48 hrs by microscopic analysis; assay type: functional, cell-based; conditions: time min <=4327
[27] = Drug localization in mitochondria of human HeLa cells at 1 uM incubated for 24 hrs by Rhodamine 123 based confocal laser scanning microscopy analysis; assay type: ADME
[28] = tested on: HeLa; test: Induction of cell cycle arrest in human HeLa cells assessed as accumulation in G0/G1 phase at 0.25 uM by PI staining based flow cytometry analysis (reference value: 67.03 %); assay type: functional
[29] = tested on: HeLa; test: Induction of cell cycle arrest in human HeLa cells assessed as accumulation in S phase at 0.25 uM by PI staining based flow cytometry analysis (reference value: 32.14 %); assay type: functional
[30] = tested on: HeLa; test: Induction of cell cycle arrest in human HeLa cells assessed as accumulation in G2/M phase at 0.25 uM by PI staining based flow cytometry analysis (reference value: 4.79 %); assay type: functional
[31] = tested on: HeLa; test: Induction of cell cycle arrest in human HeLa cells assessed as accumulation in G0/G1 phase at 1 uM by PI staining based flow cytometry analysis (reference value: 67.03 %); assay type: functional
[32] = tested on: HeLa; test: Induction of cell cycle arrest in human HeLa cells assessed as accumulation in S phase at 1 uM by PI staining based flow cytometry analysis (reference value: 32.14 %); assay type: functional
[33] = tested on: HeLa; test: Induction of cell cycle arrest in human HeLa cells assessed as accumulation in G2/M phase at 1 uM by PI staining based flow cytometry analysis (reference value: 4.79 %); assay type: functional
[34] = tested on: HeLa; test: Induction of cell cycle arrest in human HeLa cells assessed as accumulation in G0/G1 phase at 0.25 uM with red light radiation for 7 mins by PI staining based flow cytometry analysis (reference value: 63.18%); assay type: functional
[35] = tested on: HeLa; test: Induction of cell cycle arrest in human HeLa cells assessed as accumulation in S phase at 0.25 uM with red light radiation for 7 mins by PI staining based flow cytometry analysis (reference value: 32.09 %); assay type: functional
[36] = tested on: HeLa; test: Induction of cell cycle arrest in human HeLa cells assessed as accumulation in G2/M phase at 0.25 uM with red light radiation for 7 mins by PI staining based flow cytometry analysis (reference value: 4.73 %); assay type: functional
[37] = tested on: HeLa; test: Induction of morphological change in human HeLa cells assessed as reduction in adhesion at 0.25 uM preincubated for 24 hrs followed by 7 mins of LED light irradiation and measured upto 48 hrs by microscopic analysis; assay type: functional, cell-based; conditions: time min <=4327
[38] = tested on: HeLa; test: Induction of apoptosis in human HeLa cells at 0.25 uM preincubated for 24 hrs followed by 7 mins LED light irradiation and measured after 24 hrs by PI staining based flow cytometry analysis; assay type: functional; conditions: time 2887 min, 48.12 h
[39] = Drug localization in lysosome of human HeLa cells at 1 uM incubated for 24 hrs by Green Fluorescent Protein based confocal laser scanning microscopy analysis; assay type: ADME, subcellular
[40] = tested on: HeLa; test: Induction of apoptosis in human HeLa cells assessed as increase in DNA cleavage at 1 uM preincubated for 24 hrs followed by 7 mins LED light irradiation and measured after 24 hrs by PI staining based flow cytometry analysis; assay type: functional; conditions: time 2887 min, 48.12 h

Row | SMILES | IC50 at 24 h [2] [µM] | IC50 at 24 h [3] [µM] | selectivity ratio [4] | IC50 at 24 h [5] [µM] | IC50 [6] [µM] | Ratio IC50 [7] | selectivity ratio [8] | IC50 at 24 h [9] [µM] | IC50 [10] [µM] | Ratio IC50 [11] | selectivity ratio [12] | IC50 at 24 h [13] [µM] | IC50 [14] [µM] | Ratio IC50 [15] | selectivity ratio [16] | IC50 at 24 h [17] [µM] | IC50 [18] [µM] | Ratio IC50 [19] | selectivity ratio [20] | Kb [21] | further results
1 | CCCCCCN1/C(=C/C2=C(NCc3ccccn3)C(=C/C3=[N+](CCCCCC)c4ccc5ccccc5c4C3(C)C)/C2=O)C(C)(C)c2c1ccc1ccccc21.[I-] | 4.3 | 1.28 | 3.4 | > 10 | 4.82 | > 2.1 | 0.26 | 4.79 | 2.58 | 1.9 | 0.49 | 3.1 | 2.29 | 1.4 | 0.56 | 6.69 | 1.53 | 1.3 | 0.84 | 1.64 10^5/M | Activity [1]: 1%
2 | CCCCCCN1/C(=C/C2=C(N(Cc3ccccn3)Cc3ccccn3)C(=C/C3=[N+](CCCCCC)c4ccc5ccccc5c4C3(C)C)/C2=O)C(C)(C)c2c1ccc1ccccc21.[I-] | 1.01 | 0.695 | 1.4 | 2.49 | 2.13 | 1.2 | 0.33 | 1.74 | 1.17 | 1.5 | 0.59 | 1.52 | 1.19 | 1.3 | 0.59 | 1.11 | 0.967 | 1.1 | 0.72 | 7.68 10^5/M | –
3 | CCN1/C(=C/C2=C(N(Cc3ccccn3)Cc3ccccn3)C(=C/C3=[N+](CC)c4ccc5ccccc5c4C3(C)C)/C2=O)C(C)(C)c2c1ccc1ccccc21.[I-] | 0.484 | 0.184 | 2.6 | 0.328 | 0.092 | 3.6 | 2 | 0.449 | 0.113 | 4 | 1.63 | 0.534 | 0.15 | 3.6 | 1.23 | 0.393 | 0.148 | 2.7 | – | 5.92 10^5/M | –
4 | CCN1/C(=C/C2=C([O-])C(=C/C3=[N+](CC)c4ccc5ccccc5c4C3(C)C)/C2=O)C(C)(C)c2c1ccc1ccccc21 | > 10 | 0.222 | > 45 | > 10 | 0.332 | > 30.1 | 0.67 | > 10 | 0.245 | > 40.8 | 0.91 | > 10 | 0.232 | > 43.1 | 0.96 | > 10 | 0.19 | > 52.6 | 1.17 | 2.01 10^5/M | Activity [22]: 1%; Activity [23]: Active; Activity [24]: Active; Activity [25]: Active; Activity [26]: Active; Drug uptake [27]: Active; Activity [28]: 68.96%; Activity [29]: 25.84%; Activity [30]: 5.19%; Activity [31]: 70.47%; Activity [32]: 25.92%; Activity [33]: 3.61%; Activity [34]: 58.79%; Activity [35]: 31.5%; Activity [36]: 9.71%; Activity [37]: Active; Activity [38]: 17%; Drug uptake [39]: Not Active; Activity [40]: 98%

— ChEMBL document CHEMBL5042514, “Picolylamine-functionalized benz[e]indole squaraine dyes: Synthetic approach, characterization and in vitro efficacy as potential anticancer phototherapeutic agents” (Eur J Med Chem, 2022)
